Patent US11702402B2, “Small molecules that block proteasome-associated ubiquitin receptor RPN13 function and uses thereof” (DANA-FARBER CANCER INSTITUTE, INC., priority 2018, dated 2023)

What was measured:
[1] = test system: MM.1S cells co-cultured with patient BMSCs; assay: MM.1S co-culture with patient BMSCs (WST); type: cell-based, Human; settings: 48 hours
From the text: The IC50 of WL40 for cell lines is shown.

[2] = test system: HCT116 and HCT116-Rpn13KO cell lines; assay: HCT116 and HCT116-Rpn13KO cell viability; type: cell-based; settings: HCT116 versus HCT116-Rpn13KO; 48 hours; Wst-1
Protocol: FIGS. 8A and 8B show HCT116 and HCT116-Rpn13KO cell lines that were treated with WL40 or WL44 at the indicated concentrations for 48 hours. Wst-1 assay was used to test cell viability.
CRISPR-Cas9 genome editing was performed to generate Rpn13-knockout (Rpn13-KO) HCT116 and MM.1S cell lines. Cells were transfected with Rpn13-CRISPR/Cas9-knockout (KO) plasmid (Santa Cruz Biotechnology, Inc., Santa Cruz, Calif., USA) using Lipofectamine 2000 (Thermo Fisher Scientific, Waltham, Mass., USA) or the cell line Nucleofector Kit V (Amaxa Biosystems, Cologne, Germany), respectively. After 48 h incubation, green fluorescent protein (GFP)-positive cells were sorted. Rpn13 KO was confirmed by both protein expression studies and DNA sequencing.

RPN13 [3] = biological target: T1, RPN13 (Homo sapiens, UniProt Q16186); assay: Rpn13 immunoblot in RPMI-8226 cells; type: cell-based; design: endogenous in cells; host or cells: MM.1S; MM.1S-CRBN KO; RPMI-8226; ANBL6.BR; settings: RPMI-8226 (p53-mutated); 400 nM; 16 hours
T1 sequence (Q16186 whole entry): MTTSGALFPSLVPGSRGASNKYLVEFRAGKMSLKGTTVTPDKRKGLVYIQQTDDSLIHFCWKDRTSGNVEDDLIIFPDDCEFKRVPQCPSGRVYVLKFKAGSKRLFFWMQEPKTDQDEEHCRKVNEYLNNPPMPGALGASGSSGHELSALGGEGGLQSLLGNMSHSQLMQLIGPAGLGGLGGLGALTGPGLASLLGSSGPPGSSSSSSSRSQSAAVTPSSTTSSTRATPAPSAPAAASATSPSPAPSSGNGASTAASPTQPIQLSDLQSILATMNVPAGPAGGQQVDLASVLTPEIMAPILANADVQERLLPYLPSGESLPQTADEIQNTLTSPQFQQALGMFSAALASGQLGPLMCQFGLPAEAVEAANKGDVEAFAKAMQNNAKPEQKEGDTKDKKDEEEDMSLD
Protocol: (§1) MM.1S cells, which were treated with DMSO control, bortezomib, or WL40 at indicated concentration for 3 hours; protein lysates were analyzed for different proteasome activities (CT-L, chymotrypsin-like; T-L, trypsin-like; C-L, caspase-like). FIG. 20B is a bar graph showing percent proteasome activity after normalization with DMSO control (mean±SD; n=3). Recombinant 20S proteasome was incubated with DMSO, bortezomib, or WL40 for 30 minutes, followed by assessment of the above-noted proteasome activities. FIG. 20C MM.1S cells were pretreated with exemplary proteasome inhibitor MG132 (10 μM) for 1 hour, followed by addition of WL40 (400 nM) for 8 hours. […] Total protein lysates were subjected to immunoblots for Rpn13 and α-tubulin. […] FIG. 20E ANBL6.BR cells were treated with WL40 (400 nM) or RA190 (500 nM) for 16 hours; protein lysates were subjected to immunoblot analysis using anti-Rpn13 or anti-β-actin Abs.
(§2) Cellular protein extracts were prepared using RIPA lysis buffer (50 mM Tris-HCl, 150 mM NaCl, 1% NP-40, 0.5% sodium deoxycholate, and 0.1% SDS). […]
(§3) Next, the effect of WL40 on additional MM cell lines, including p53-mutated RPMI-8226 cells or bortezomib-resistant ANBL6.BR cells, was evaluated. […]

[4] = biological target: Recombinant 20S proteasome (Homo sapiens, UniProt P28072+P28074+Q99436); assay: Recombinant 20S proteasome activity assay; type: biochemical; settings: purified recombinant 20S proteasome; 30 minutes
Protocol: as §1
To eliminate the potential impact of WL40 on proteasome function, the effect of WL40 on proteasome activities was assessed.

RPN13 [5] = biological target: T1, RPN13; assay: Rpn13 immunoblot in ANBL6.BR cells; type: cell-based; design: endogenous in cells; host or cells: MM.1S; MM.1S-CRBN KO; RPMI-8226; ANBL6.BR; settings: ANBL6.BR (bortezomib-resistant); 400 nM; 16 hours
Protocol: as §1, §2, §3

RPN13 [6] = biological target: T1, RPN13; assay: RPN13 AlphaScreen (Rpn13 / biotinylated polyUb recognition); type: binding; settings: RA190 as positive control
Protocol: Assays were performed with minimal modifications from the manufacturer's protocol (PerkinElmer, USA). All reagents were diluted in 50 mM HEPES, 150 mM NaCl, 0.1% w/v BSA, 0.01% w/v Tween20, pH 7.5, and allowed to equilibrate to room temperature prior to addition to plates. After addition of Alpha beads to master solutions, all subsequent steps were performed under low light conditions. A 2× solution of components with final concentrations of RPN13 at 670 nM, Ni-coated Acceptor Bead at 20 μg/ml, and 5 nM biotinylated-poly-Ub K48-linked chains (UCB-230, BostonBiochem, USA) was added in 10 μL to 384-well plates (AlphaPlate-384, PerkinElmer, USA). Plates were spun down at 150×g, and 100 nL of compound in DMSO from stock plates were added by pin transfer using a Janus Workstation (PerkinElmer, USA). The streptavidin-coated donor beads (20 μg/ml final) were added, as with previous the solution, in a 2×, 10 μL volume. Following this addition, plates were sealed with foil to prevent light exposure and evaporation. The plates were spun down again at 150 g. Plates were incubated at room temperature for 1 hour, and then read on an Envision 2104 (PerkinElmer, USA), using the manufacturer's protocol.
Several experiments were performed to confirm the specificity of WL40. […] It was then examined whether the bivalent molecule, WL40, can bind to Rpn13. […]

[7] = test system: p53/p21 apoptotic signaling axis; assay: p53/p21 signaling immunoblot; type: cell-based, Human; settings: ANBL6.BR; WL40 (1 μM) versus RA190 (1 μM)

## O=C1CCC(N2C(=O)c3cccc(NCCOCCOCCOCCC(=O)N[C@@H](Cc4ccccc4)C(=O)N4C/C(=C\c5ccc(Cl)c(Cl)c5)C(=O)/C(=C/c5ccc(Cl)c(Cl)c5)C4)c3C2=O)C(=O)N1 (stereo partly shown) [WL40]
[1]
  viability of MM cells in co-culture: dose-dependent decrease in the viability of MM cells
[2]
  RPN13 dependence of cytotoxicity: RPN13-dependent
RPN13 [3]
  Rpn13 levels (immunoblot): induced RPN13 degradation
[4]
  20S proteasomal activities (chymotrypsin-like, trypsin-like, caspase-like): does not inhibit 20S proteasomal activities
RPN13 [5]
  Rpn13 levels (immunoblot): induced RPN13 degradation
RPN13 [6]
  Rpn13 binding: binds to Rpn13
[7]
  induction of p53/p21 signaling: earlier induction of this pathway
